{"source": "patent US10669310B2", "about": "“Peptide for cancer treatment and pharmaceutical composition containing same” (TOKUSHIMA UNIVERSITY, priority 2016, dated 2020)", "key": {"MCF-7 cells": {"system": "MCF-7 cells", "assay_type": "cell-based, human", "protocol": "(§1) Human breast cancer cell line MCF-7 and mammary epithelial cell line MCF-10A were purchased from American Type Culture Collection (ATCC, Manassas, Va., USA). Breast cancer cell line KPL-3C (J. Kurebayashi, et al., Br. J. Cancer 74, 200-207 (1996)) was kindly provided by Dr. Junichi Kurebayashi (Kawasaki Medical School). All cell lines were monolayer cultured in an appropriate medium supplemented with 10% FBS. The cells were maintained at 37° C. under humidified atmosphere containing 5% CO2.\n(§2) In each experiment, the respective cells were seeded in a 48-well plate (2×10^4 cells/mL), a 6-well plate (3×10^5 cells/mL), or a 10-cm dish (2×10^6 cells/10 mL). MCF-7 cells were seeded in MEM (Thermo Fisher Scientific) supplemented with 10% FBS (Nichirei Biosciences Inc., Tokyo, Japan), 1% Antibiotic/Antimycotic solution (Thermo Fisher Scientific, Waltham, Mass., USA), 0.1 mM NEAA (Thermo Fisher Scientific), 1 mM sodium pyruvate (Thermo Fisher Scientific), and 10 μg/mL insulin (Sigma, St. Louis, Mo., USA). KPL-3C cells were seeded in RPMI (Thermo Fisher Scientific) supplemented with 10% FBS and 1% Antibiotic/Antimycotic solution. MCF-10A cells were seeded in MEBM (Lonza) supplemented with a Single Quots kit (BPE, hydrocortisone, hEGF, insulin, gentamycin/amphoterin-B) (Lonza, Walkersville, Md., USA) and 100 ng/mL cholera toxin. For 17β-estradiol (E2) (Sigma) stimulation, the media for MCF-7 and KPL-3C were changed to phenol red-free DMEM/F12 (Thermo Fisher Scientific) supplemented with 10% FBS, 1% Antibiotic/Antimycotic solution, 0.1 mM NEAA, 1 mM sodium pyruvate, and 10 μg/mL insulin on the day after seeding. Twenty-four hours later, the cells were treated with 10 nM E2 and a peptide (for example, 11R-ERAP or a stapled ERAP), or with 10 nM E2 alone.\nWhen carrying out treatment with tamoxifen (Sigma) or fulvestrant (LKT laboratories, St. Paul, Minn., USA), cells were treated with 10 nM tamoxifen or 2 μM fulvestrant simultaneously with the above-mentioned treatment with E2 and a peptide or with E2 alone.\nCell growth assays on MCF-7, KPL-3C, and MCF-10A were carried out as described previously using a Cell Counting Kit-8 (CCK-8) (Dojindo, Kumamoto, Japan) (T. Yoshimaru, et al., Nat. Commun. 4, 2443 (2013)). The data are shown by mean±SE of three independent experiments."}, "MCF-10A cells": {"system": "MCF-10A cells", "assay": "Cell growth (MTT) assay, MCF-10A cells", "assay_type": "cell-based, human", "details": "normal mammary epithelial cells, ERα-negative and BIG3-negative", "protocol": "as §1\nas §2, with “For 17β-estradiol (E2) (Sigma) stimulation, the media for MCF-7 and KPL-3C were changed to phenol red-free DMEM/F12 (Thermo Fisher Scientific) supplemented with 10% FBS, 1% Antibiotic/Antimycotic solution, 0.1 mM NEAA, 1 mM sodium pyruvate, and 10 μg/mL insulin on the day after seeding. Twenty-four hours later, the cells were treated with 10 nM E2 and a peptide (for example, 11R-ERAP or a stapled ERAP), or with 10 nM E2 alone.” left out"}, "BIG3-PHB2 interaction": {"molecular_target": "T1, BIG3-PHB2 interaction (Homo sapiens, UniProt Q99623)", "T1 construct": "complex formation between the endogenous BIG3 and PHB2 in ERα-positive breast cancer cell line MCF-7; endogenous in cells; host or cells: MCF-7", "T1 sequence (Q99623 2-299 limits assumed)": "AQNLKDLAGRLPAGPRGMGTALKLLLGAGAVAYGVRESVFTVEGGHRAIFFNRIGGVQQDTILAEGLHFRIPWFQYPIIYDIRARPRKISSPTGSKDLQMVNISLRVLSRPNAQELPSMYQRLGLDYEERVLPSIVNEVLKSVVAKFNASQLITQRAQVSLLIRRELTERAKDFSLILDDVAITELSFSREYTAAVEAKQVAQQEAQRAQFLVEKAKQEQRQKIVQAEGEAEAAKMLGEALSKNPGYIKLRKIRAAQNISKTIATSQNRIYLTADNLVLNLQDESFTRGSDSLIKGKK", "assay": "Co-immunoprecipitation with anti-BIG3 antibody in MCF-7 cells", "assay_type": "cell-based", "details": "MCF-7, 1 μM, 24 hours after treatment", "protocol": "Immunoblot analyses were performed as described previously (T. Yoshimaru, et al., Nat. Commun. 4, 2443 (2013)). After performing SDS-PAGE, the membranes blotted with proteins were blocked with 4% BlockAce solution (Dainippon Pharmaceutical, Osaka, Japan) for three hours and then incubated with antibodies against the following proteins: BIG3 (1:1,000) (T. Yoshimaru, et al., Nat. Commun. 4, 2443 (2013)); PHB2 (1:1,000) (Abeam, Cambridge, UK); Akt, phosphorylated Akt (S473) (587F11, 1:1,000); p44/42 MAPK, phosphorylated p44/42 MAPK (T202/Y204) (1:1,000); α/β-tubulin (1:1,000) (Cell Signaling Technology, Danvers, Mass., USA); and LMNB1 (1:100) (Sigma). After incubation with an HRP-labeled secondary antibody (anti-mouse IgG-HRP, 1:5,000; anti-rat IgG-HRP; 1:5,000; or anti-rabbit IgG-HRP, 1:1,000) (Santa Cruz Biotechnology, Dallas, Tex., USA) for one hour, the blots were developed with an Enhanced Chemiluminescence (ECL) system (GE Healthcare, Buckinghamshire, UK) and scanned using an Image Reader LAS-3000 mini (Fujifilm, Tokyo, Japan). All the experiments were performed at least in triplicate.\nImmunoprecipitation analysis was performed as described previously (T. Yoshimaru, et al., Nat. Commun. 4, 2443 (2013)). Cell lysates were pre-cleared with normal IgG and rec-Protein G Sepharose 4B (Thermo Fisher Scientific) at 4° C. for three hours. Then, the supernatants were incubated with 5 μg of an antibody against BIG3 or an antibody against PHB2 at 4° C. for twelve hours. Next, the antigen-antibody complexes were precipitated using rec-Protein G Sepharose 4B at 4° C. for one hour. The immunoprecipitated protein complexes were washed several times with a lysis buffer. Then, SDS-PAGE and immunoblot analyses were carried out as described above."}, "[1]": {"system": "KPL-3C orthotopic breast cancer xenografts", "assay": "In vivo tumor growth inhibition, KPL-3C orthotopic xenograft, intraperitoneal", "set-up": "species or system BALB/c nude mice", "details": "1 mg/kg or 0.1 mg/kg i.p. every four or seven days, up to 28 days", "protocol": "KPL-3C cell suspensions (1×10^7 cells/mouse) were mixed with an equal volume of Matrigel (BD) and injected (200 μL in total) into the mammary fat pads of 6-week-old female BALB/c nude mice (Charles River Laboratories, Tokyo, Japan). The mice were housed in a pathogen-free isolation facility with a twelve-hour light/dark cycle and were fed solid rodent chow and water ad libitum. The tumors developed over several days and reached sizes of approximately 100 mm^3 [calculated as ½×(width×length^2)]. The mice were randomized into the following eleven treatment groups (five heads per group):\nE2 was administered via application of a solution to the neck skin, and regarding the other treatments, administration was performed via intraperitoneal injection unless other administration methods are stated. The tumor volume was measured with calipers for 28 days, and then the mice were subjected to scheduled sacrifice to remove tumors. All the experiments were performed in accordance with the guidelines of the animal facility at Tokushima University."}, "[2]": {"system": "ERα target genes TFF1 and CCND1", "assay": "ERα target gene expression in removed tumors", "assay_type": "in vivo, BALB/c nude mice", "details": "0.02, 0.1 or 1 mg/kg i.p. every four days or every seven days", "protocol": "The expression of the ERα target genes (TFF1 and CCND1) was evaluated by real-time RT-PCR as described previously (T. Yoshimaru, et al., Nat. Commun. 4, 2443 (2013)). Each sample was normalized to the β2-MG mRNA content, and the results were expressed as multiples (-fold) of the expression level in untreated cells, with that level being defined as 1.0. The data represent the mean±SD of three independent experiments. The primers used for RT-PCR were as follows: […]"}}, "data": [{"smiles": "CSCC[C@@H](NC(=O)[C@H]1CCC(=O)NCCCCNC(=O)CC[C@@H](NC(=O)[C@@H](CC(C)C)NC(=O)[C@@H](CCC(N)=O)NC(=O)[C@@H](CC(C)C)NC(=O)[C@@H](CCCNC(=N)N)NC(=O)[C@@H](CCC(N)=O)NC(=O)[C@@H](CCCNC(=N)N)NC(C)=O)C(=O)N[C@H](CC(C)C)C(=O)N[C@H](CC(=O)O)C(=O)N[C@H](CO)C(=O)N1)C(=O)N[C@H](CCC(N)=O)C(N)=O", "note": "[RI stapled ERAP No. 12]", "values": [{"measurement": "duration of significant cell growth inhibitory effects", "setting": "MCF-7 cells; 1 μM, E2-dependent growth of MCF-7", "value": "seven"}, {"measurement": "IC50", "setting": "MCF-7 cells; 96 h", "value": 500, "unit": "nM"}, {"measurement": "effect on MCF-10A cell growth", "setting": "MCF-10A cells", "value": "not inhibited"}, {"measurement": "inhibition of endogenous BIG3-PHB2 complex formation", "setting": "BIG3-PHB2 interaction", "value": "inhibited endogenous BIG3-PHB2 complex formation"}, {"measurement": "E2-dependent tumor growth", "setting": "[1]", "value": "almost fully inhibited"}, {"measurement": "E2-dependent expression of TFF1 and CCND1 in tumors", "setting": "[2]", "value": "significantly suppressed"}]}]}
